This note sets out measurements from patent publication US20070042339A1, “Preservation of biomaterials with transported preservation agents” (priority 2003, published 2007).

In data set [1] the test system is murine B lymphocytes, murine fibroblasts, and rat primary hepatocytes. Kind of data set: Cryopreservation with non-metabolizable glucose compounds, post-thaw trypan blue viability (Example 1). As to conditions: 0.2 M loading 60 min. Format: cell-based. How it is done: At first, these compounds were tested on cryopreservation, which is most common protocol for preservation of biomaterials. Glucose compounds are thought to prevent damaging effects of protein and lipid-membranes during storage. In addition, glucose compounds have a high glass transition temperature and cause the formation of stable glasses during storage. Cells were incubated with glucose-free DMEM or glucose-free DMEM with 0.2 M 2DG, or 0.2 M 3OMG for 60 min at 37° C. […] Samples were stored for up to 14 days. Following storage, samples were rapidly thawed in 37° C. H2O for 80 sec with gentle agitation. […] Samples were then centrifuged, supernatant decanted, and cells were resuspended in culture medium.

For data set [2], the system named is lymphocytes, fibroblasts and hepatocytes. Kind of data set: MTT assay of metabolic activity after glucose loading (Example 1). The following applies: 1 hr at 37° C. It counts as cell-based, murine; rat. The protocol: However, it was considered to be possible that high accumulation of glucose compounds change metabolic activity of the cells. Therefore, metabolic activity after sugar loading was measured with the MTT assay. MTT assay is a colorimetric assay based on the activity of mitochondrial dehydrogenase activity. […] Cells were seeded on 96-well culture plates with 100 μL defined medium supplemented with various glucose compounds according to the experimental design for 1 hr at 37° C. At the end of the treatment period, 10 μL of MT solution (5 mg/mL) were added and incubated for 2 hrs at 37° C. At this time, 100 μL of detergent solution were added to the wells and after 24 hrs of incubation at 25° C., and the absorption value at 570 nm was measured in a microtiter reader.
On the technique in general: Tetrazolium assays rely on reduction of a dye to a coloured formazan, in cell work by metabolically active cells.

The test system of data set [3] is hepatocytes. Format: cell-based. The following applies: rat, 60 min, 200 mM. How it is done:
HTS without sugar supplement was used for control samples. […] Following storage, samples were rapidly thawed in 37° C. H2O for 2 min with gentle agitation.

Data set [4] concerns hepatocytes. Format: cell-based, rat. From the text:
The sandwich culture is a long-term culture technique that results in stable and differentiated hepatocytes. We evaluated albumin synthesis, urea production, and cytochrome P450 (CYP) activity of frozen-thawed hepatocytes as markers of synthetic, metabolic, and detoxification abilities of hepatocytes. Albumin production of 3OMG-loaded and cryopreserved hepatocytes stabilized following 7 days in culture (FIG. 11A). Daily average of albumin production (day 7-13) from 3OMG-loaded hepatocytes was approximately 60% of non-frozen control (1.29±0.19 μg and 2.14±0.26 μg, respectively) with statistically significant difference (p=0.014). […] The CYP activity was measured on day 3 and 7 after thawing.

The subject of data set [5] is lymphocytes, fibroblasts and hepatocytes. It counts as cell-based, murine; rat. The protocol:
The conventional permeable cryoprotectants such as DMSO and glycerol benefit cells for preservation, but they are known to be toxic to the cells at the same time. […] The toxicity of various glucose compounds, D-glucose and DMSO was examined after loading. Cells were incubated with glucose-free DMEM supplemented with 0.2 M 3OMG, with 0.2 M 2DG or 1.4 M DMSO for 60 min at 37° C. After loading, calcein and ethidium homodimer were added to cell suspensions to assess viability. Cells were run through Beckton-Dickinson FACSCalibur flowcytometer to take emission reading at 530 nm and 630 nm of 5000 particles. High green and low red fluorescence (calcein positive) were scored as live, whereas high red and low green (ethidium positive) were scored dead.

Like-named read-outs stand apart in the source and are kept apart here.

Take `OC[C@H]1OC(O)C[C@@H](O)[C@@H]1O` (mixture of isomers) [2DG, 2-deoxy-D-glucose]: the “viability after cryopreservation compared to non-glucose control” value in data set [1] is “significantly high viability”. Also, the “metabolic activity (MTT) after loading, lymphocytes and fibroblasts” value in data set [2] (lymphocytes and fibroblasts) is listed as “significant loss of metabolic activity”. The “metabolic activity (MTT) after loading, hepatocytes” value in data set [2] (primary isolated hepatocytes) is reported as “not down-regulated”. Also, the “post-thaw viability, percent of non-frozen samples” value in data set [3] came to 15%.
For the compound `O=C[C@H](O)[C@@H](O)[C@H](O)[C@H](O)CO` [D-glucose], the “post-thaw viability, percent of non-frozen samples” value in data set [3] is recorded as less than 10%. The “hepatospecific functions (albumin, urea, CYP) in long-term culture after cryopreservation” value in data set [4] was “completely lost these functions in 5 days”.
For the compound `C[S+](C)[O-]` [DMSO, dimethylsulfoxide], the “toxicity to the cells (percentage of dead cells after incubation)” value in data set [5] is reported as “significant toxicity”.
Turning to `OC[C@H]1O[C@@](CO)(O[C@H]2O[C@H](CO)[C@@H](O)[C@H](O)[C@H]2O)[C@@H](O)[C@@H]1O` [sucrose], the “hepatospecific functions (albumin, urea, CYP) in long-term culture after cryopreservation” value in data set [4] (collagen sandwich culture, 14 days) was “completely lost these functions in 5 days”.
